Test results as given in US8492159B2, “Methods and compositions for treating conditions” (priority 2004, dated 2013).

Columns and labels:
[1] = tested on: Pseudomonas syringae pv tomato, DC3000; test: Systemic resistance of plants to a virulent bacterial pathogen; format: in vivo, Arabidopsis ecotype Columbia (Col-0); details: 20 μl salicylic acid at 1 mM and 20 μl SEQ ID NO: 15 applied together to the leaves
Procedure: Seeds of Arabidopsis ecotype Columbia (Col-0) were planted in potting soil. Plants were cultivated in a growth chamber with 10-h d (200 μmol m^−2 s^−1 at 22° C.) and 14-h night (18° C.) cycles and 80% RH. Once a week plants were supplied with water and modified one-half strength Hoagland nutrient solution: 2 mM KNO 5 mM Ca(NO3)2 and trace elements, pH 7.
A virulent plant pathogen, Pst Pseudomonas syringae pv tomato, DC3000 was grown at 28° C. on King's medium B containing 40 mg/L tetracycline. Plants were inoculated with 1×10^7 cfu/ml of the pathogen in 0.01% Silwet L77 (v/v) (a surfactant) and distilled water 5 weeks after sowing. The bacterial suspension or a control solution (0.01% Silwet L77 in water) was then sprayed on the plant once.
Disease symptoms in Arabidopsis are water-soaked, spreading lesions, sometimes surrounded by chlorotic margin that eventually lead to yield loss and plant death.
To test the efficacy of SEQ ID NO: 15, some healthy and some disease plants were sprayed with salicylic acid in 0.01%. Silwet L77; some healthy and some disease plants were sprayed with SEQ ID NO: 15 in 0.01%. Silwet L77, and some healthy and some disease plants were sprayed with salicylic acid in combination with SEQ ID NO: 15 in 0.01%. Silwet L77. A control group of some healthy and some disease plants were sprayed with water in 0.01%. Silwet L77. […]

[2] = tested on: Sauromatum guttatum appendix; test: Modulation of heat generated by aspirin (ASA) in appendix sections; details: appendix sections in aqueous ASA with or without peptide
Procedure: (§1) In one example, using Sauromatum guttatum as the experimental module, on the day of inflorescence-opening, the Sauromatum appendix (a 20-40 cm-long, slender organ) becomes warm, reaching a 32° C. temperature (Skubatz et al., 1991, Plant Physiol. 95:1084-1088). The heat generated by the appendix is generated by the mitochondria. This mitochondrial activity can be triggered by the addition of phenolic compounds, including but not limited to, salicylic acid, aspirin, and 2,6-dihydroxybenzoic acid. Test agents can be applied to the plant and the plant's temperature may be monitored in vivo.
One day before heat-production, sections of the appendix were placed in different aqueous solutions containing ASA with or without an opioid peptide. [Leu]-Enkephalin, SEQ ID NO: 15; Human β-Endorphin; SEQ ID NO: 19; Dynorphin A, SEQ ID NO: 21; Endomorphin 2, SEQ ID NO: 24; Neuropeptide AF, SEQ ID NO: 44; β-human-Casomorphin, SEQ ID NO: 47; Alzheimer's peptide, SEQ ID NO: 48. […] Temperature was recorded with thermocouples attached to the section every 5 min.

[3] = tested on: Sauromatum guttatum appendix; test: Modulation of heat generated by salicylic acid (SA) in appendix sections; details: appendix sections in aqueous SA with or without peptide
Procedure: as §1
FIG. 5 illustrates modulation of heat generated by salicylic acid (SA) in the presence of human opioid peptides (β-Endorphin, SEQ ID NO: 19 and Nueuropeptide AF, SEQ ID NO: 44) and, the Alzheimer's peptide, Aβ 1-42, SEQ ID NO: 49, and, a plant virulent bacterial pathogen (Pst DC3000). One day before heat-production, sections of the appendix were placed in different aqueous solutions containing salicylic acid (SA) with or without a peptide or with the bacterial plant pathogen, Pseudomonas syringae pv. Tomato, DC3000. Sections from the appendix were placed in distilled water that was not generated any heat is the control (water). Temperature was recorded with thermocouples attached to the sections every 5 min.

[4] = tested on: post-operative pain in rats; test: Von Frey testing for mechanical allodynia, post-operative pain (Brennan model), first study; format: in vivo, rat
Source text: A total of forty (40) male Sprague Dawley rats (Harlan Sprague Dawley Inc., Indianapolis, Ind., USA) were used in the study. The rats are specific pathogen free and approximately 250 grams upon arrival. The rats were housed in the vivarium in clear polycarbonate plastic cages (48×27×20 cm); 2 rats per cage until a few days prior to surgery at which point they were singularly housed for the remainder of the study procedures. The bedding material is irradiated corn-cob bedding (Bed-O-Cob, The Andersons, Maumee, Ohio, USA) that was changed weekly. The rats were acclimated for two weeks prior to the commencement of the experimental procedures. The room in which the rats were housed throughout the study was supplied with HEPA filtered air at the rate of 10-15 air changes per hour. The temperature was maintained at 18-26° C. with a relative humidity of 30-70%. Illumination is approximately 300 lumens/m^2 at 1 m above floor level on a 12-hour light/dark cycle. […]
On days 1 and 3 post-surgery, the rats underwent Von Frey testing for mechanical allodynia. Tactile sensitivity (i.e. mechanical allodynia) was measured using calibrated filaments touched to the plantar surface of the affected limb. […]
FIG. 1. Data were analyzed using a one-way ANOVA followed by Newman-Keuls' Multiple Comparison. […]

[5] = tested on: post-operative pain in rats; test: Hind paw withdrawal threshold (von Frey filaments) after surgery, second study; format: in vivo, rat
Procedure: In a second independent study the rat hind paw withdrawal sensitivity was again evaluated after 3 h and 3 day post-surgery when the rats had received SEQ ID NO: 1 at three different concentrations: 1, 15 and 50 mg/kg. The dosing route was subdermal injection adjacent to the wound site. The rats received one dose 3 hours after the surgery and on Day 3 post-surgery, group 3 was dosed again as described in the Table IV. Pain measurements were taken 15-20 min after application of the drug. Baseline pain behavior was measured as follows: Withdrawal responses to mechanical stimulation were determined using von Frey filaments applied from underneath the cage through openings (12×12 mm in the plastic mesh floor to an area adjacent to the intended incision. Each von Frey filament (Target force of 0.008 g to 300 g) was applied once starting with 0.008 g filament and continuing until a withdrawal response occurred or 300 g force was reached. The median force producing a response, determined from three tests given over a 10-min period was considered the withdrawal threshold.
In the saline treated animals, the control, 3-hour post-surgery were 25.1, 4.4 and 12.7 g, indicating significant hyperalgesic response immediately after surgery which subsided by Day-3. […] The withdrawal response in the 50 mg/kg SEQ ID NO: 1 administered on Day-1 was 9.9 g compared to the 4.4 g for the saline group at the same time-point, indicating a 125% effect. The data expressed as mean±SE, were analyzed using ANOVA followed by Tukey-HSD Multiple Comparison Test. Statistical significance was p<0.05.
On Day-3, when these animals were administered with […] of SEQ ID NO: 1 subdermally, the withdrawal response was at 21.3 g, compared to the withdrawal response of saline group at 12.7 g, constituting an increase of 68%. The data expressed as mean±SE, were analyzed using ANOVA followed by Tukey-HSD Multiple Comparison Test. Statistical significance was p<0.05.

[6] = tested on: chronic pain; test: Topical administration to an adult subject with chronic pain, scaled score 1 to 10; format: in vivo, human
Procedure: An adult subject suffering from chronic pain as a result from of multiple fractures to both tibia and fibula in both legs and severe traumatic soft tissue damage was topically administered a composition containing a polypeptide of SEQ ID NO: 1 at regions experiencing pain (mostly knees and ankles). The pharmaceutical formulation administered comprised of 5 μM of SEQ ID NO: 1 in 0.01% Silwet L-77. Relief was noticed within 15 min. after administration of a single dose of about 5 μg/10 cm2 of SEQ ID NO: 1. […] A scaled score of 1 to 10 was used to evaluate treatment efficacy where a score of 10 represented a patient with sever pain discomfort and complete inability to walk. A scaled score of 1 represented a patient experiencing no pain and able to freely walk or move the legs. Prior to treatment, the patient scored an 8-9 representing chronic pain and difficulties in walking long distance. After the treatment, the patient scored a 2-3 representing a significant decrease in pain. Treatment efficacy lasted for about 10 days.

[7] = tested on: Arabidopsis thaliana plants; test: Flowering of treated plants; format: in vivo; details: 10 μm in 0.01% Silwet L-77
[8] = tested on: Sauromatum guttatum appendix; test: Modulation of heat generated by 2,6-dihydroxybenzoic acid (2,6-DHBA) in appendix sections; peptide alone in a second experiment
Procedure: as §1
FIG. 6 illustrates modulation of heat generated by 2,6-dihydroxybenzoic acid in the presence of the Alzheimer's peptide, A.β.1-42, SEQ ID NO: 49 and a plant gene derived sequence in the Sauromatum guttatum appendix. One day before heat-production, sections of the appendix were placed in different solutions containing 2,6-dihydroxybenzoic acid (2,6-DHBA) with or without SEQ ID NO: 2 (FLPSEFGVDVDR) and SEQ ID NO: 49. Heat-production was monitored with thermocouples attached to the sections. A section placed in distilled water that was not generated any heat is the control (water). […] The temperature was recorded every 5 min.

O=C(O)c1ccccc1O [salicylic acid]
systemic resistance to the virulent bacteria [1]: enough to trigger systemic resistance

AGEGLNSQFWSLAAPQRF [SEQ ID NO: 44]
modulation of heat generated by aspirin (ASA) (FIG. 4) [2]: can modulate thermogenicity in plants | modulation of heat generated by salicylic acid (SA) (FIG. 5) [3]: modulate thermogenicity in plants

FLPS (Description of Unknown: Arabidopsis thaliana or Homo sapiens) [SEQ ID NO: 1]
pain (mechanical allodynia, paw withdrawal threshold, FIG. 1) ([4]; rats 3 days after surgery, 150 μg topical or subdermal, p<0.05): significantly reduce pain | appearance of the rats ([4]; rats after surgery, treated): relaxed and with less anxiety | increase in the pain threshold ([5]; 1 mg/kg on day 1, 3-hour post surgery measurements): 39% | effect compared to the saline group at the same time-point ([5]; 50 mg/kg subdermal, Day-1, 3 h after surgery): 125% | withdrawal response ([5]; 50 mg/kg subdermal, Day-1, 3 h after surgery, saline group 4.4 g): 9.9 g | increase in response time compared to the saline group ([5]; Day 3, group which did not receive any further dosing): 31% | increase of withdrawal response compared to saline group ([5]; Day-3, 15.25 mg/kg subdermally): 68% | withdrawal response ([5]; Day-3, 15.25 mg/kg subdermally (animals given 1 mg/kg on day 1), saline group 12.7 g): 21.3 g | scaled pain score after the treatment ([6]; scale 1 (no pain) to 10 (severe pain), prior to treatment 8-9): 2-3 | duration of treatment efficacy ([6]; topical, single dose): about 10 days | duration of relief ([6]; topical, single dose of about 5 μg/10 cm2): more than a week | time until relief was noticed ([6]; topical, single dose of about 5 μg/10 cm2, 5 μM in 0.01% Silwet L-77): ≤ 15 min | flowering [7]: induces early flowering and abundance of flowers and pods

FLPSEFGVDVDR [SEQ ID NO: 2]
modulation of heat generated by 2,6-dihydroxybenzoic acid (FIG. 6) ([8]; appendix sections in 2,6-DHBA with or without peptide): modulate thermogenicity in plants | heat generation by the peptide ([8]; second experiment, up to 50 μM, data not shown): did not generate heat

YGGFL [SEQ ID NO: 15]
modulation of heat generated by aspirin (ASA) (FIG. 4) [2]: can modulate thermogenicity in plants | systemic resistance to the virulent bacteria [1]: enough to trigger systemic resistance

YGGFLRRIRPKLKWDNQ [SEQ ID NO: 21]
modulation of heat generated by aspirin (ASA) (FIG. 4) [2]: can modulate thermogenicity in plants

YGGFMTSEKSQTPLVTLFKNAIIKNAYKKGE [SEQ ID NO: 19]
modulation of heat generated by aspirin (ASA) (FIG. 4) [2]: can modulate thermogenicity in plants | modulation of heat generated by salicylic acid (SA) (FIG. 5) [3]: modulate thermogenicity in plants

YPFF [SEQ ID NO: 24]
modulation of heat generated by aspirin (ASA) (FIG. 4) [2]: can modulate thermogenicity in plants

YPFVEPIP [SEQ ID NO: 47]
modulation of heat generated by aspirin (ASA) (FIG. 4) [2]: can modulate thermogenicity in plants
